This data set can be described thus: Photodiode array (PDA) detection of compound in mouse brain. The format is in vivo. The following applies: PDA spectrum, FIG. 1. An excerpt:
FIG. 1 is a graph showing a photodiode array (PDA) spectrum of WHYKD8 in mouse brain.
A photodiode array (PDA) was used to detect WHYKD8 in mouse brain (FIG. 1).

On to `Oc1ccc(CCNc2ncnc3ccc(Cl)cc23)cc1` [WHYKD8], for which the “Detection in mouse brain” value is “readily detected”.

For the origin of these results see patent publication US20190112317A1, “ACTIVATORS OF AUTOPHAGIC FLUX AND PHOSPHOLIPASE D AND CLEARANCE OF PROTEIN AGGREGATES INCLUDING TAU AND TREATMENT OF PROTEINOPATHIES” (The Trustees of Columbia University in the City of New York, priority 2015, published 2019).
